Data as given in patent US20180036270A1, “A METHOD OF PROTECTING AGAINST CARBONYL STRESS INDUCED ISCHEMIA-REPERFUSION INJURY IN THE DIABETIC BRAIN VIA ADMINISTRATION OF N-ACETYLCYSTEINE” (Board of Supervisors of Louisiana State University and …, priority 2015, published 2018).

Tests used:
[1] = tested on: brain GSH and cysteine contents; test: Brain GSH and cysteine by HPLC; type: in vivo, mouse; details: vehicle mice given BSO, inhibition of GSH synthesis
Text: Four-week-old male C57BL/6J mice, weighing 18-20 g, were purchased from Jackson Laboratory. These mice were maintained at the Animal Facility of the Louisiana State University Health Sciences Center—Shreveport. Animal care and use in the experiments follow the guidelines in the Guide for the Care and Use of Laboratory Animals, published by the US National Institutes of Health. Following adaptation for 1 week, the mice were divided randomly into 4 groups: non-treated sham operation group (NT-sham group, n=6), non-treated I/R group (NT-I/R group, n=5), vehicle I/R group (Veh-I/R group, n=24), and streptozotocin I/R group (STZ-I/R group, n=19). […] On day 7, mice whose plasma glucose was more than 300 mg/dl were deemed to be diabetic. From diabetes onset at week 1, a group of diabetic mice were given 0.2 mM NAC in the drinking water for 3 weeks (n=3; a total of 4 weeks diabetes, 3 weeks NAC) or 1 week (n=9; a total of 2 weeks diabetes, 1 week NAC). Veh-I/R mice were injected with citrate buffer for consecutive 5 days, and a group of Veh-treated mice were given 0.2 mM NAC for 2 weeks in the drinking water before the ischemia operation (Veh+NAC group, n=8). Another Veh-treated mice were injected (intraperitoneally, 12 hr interval) with 0.5M BSO 24 h before the ischemia operation and during the 24 h reperfusion period (Veh+BSO group, n=10). All mice were 9 weeks old at sacrifice.
Tissue contents of GSH, cysteine and γGC were determined by high-performance liquid chromatography (HPLC). […] Separation of GSH, cysteine and γGC derivatives whose peaks were detected at 365 nm wavelength was performed on a 250×4.6-mm Alltech Lichrosorb NH2 10 μm anion-exchange column. GSH, cysteine and γGC contents were quantified by comparison to standards derivatized in the same manner. Protein pellets were dissolved in 1 M NaOH for protein quantitation and GSH, cysteine and γGC concentrations were expressed as nanomoles per mg protein.

[2] = molecular target: T1, glutamate cysteine ligase (GCL) (Homo sapiens, UniProt P48506); details: after brain ischemia/reperfusion, in the presence of BSO; cited from earlier work
T1 sequence (P48506 1-637): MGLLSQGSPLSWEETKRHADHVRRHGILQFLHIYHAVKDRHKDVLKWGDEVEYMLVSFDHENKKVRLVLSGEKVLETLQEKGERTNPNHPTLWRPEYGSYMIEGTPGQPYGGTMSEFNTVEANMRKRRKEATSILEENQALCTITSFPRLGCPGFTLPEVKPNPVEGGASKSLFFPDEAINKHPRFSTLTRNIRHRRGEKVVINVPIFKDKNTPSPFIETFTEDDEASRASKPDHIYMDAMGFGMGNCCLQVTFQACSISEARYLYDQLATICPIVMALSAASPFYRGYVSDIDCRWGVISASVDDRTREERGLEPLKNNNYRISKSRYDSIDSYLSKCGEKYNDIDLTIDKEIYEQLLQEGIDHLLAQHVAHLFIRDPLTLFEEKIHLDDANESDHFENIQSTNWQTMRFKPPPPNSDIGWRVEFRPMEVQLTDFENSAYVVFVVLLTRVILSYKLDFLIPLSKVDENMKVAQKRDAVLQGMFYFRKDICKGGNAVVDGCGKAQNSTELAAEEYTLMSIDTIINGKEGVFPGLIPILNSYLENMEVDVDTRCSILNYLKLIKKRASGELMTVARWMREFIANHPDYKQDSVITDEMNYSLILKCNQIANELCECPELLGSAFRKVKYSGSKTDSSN
T1 sequence (P48507 1-274 partner): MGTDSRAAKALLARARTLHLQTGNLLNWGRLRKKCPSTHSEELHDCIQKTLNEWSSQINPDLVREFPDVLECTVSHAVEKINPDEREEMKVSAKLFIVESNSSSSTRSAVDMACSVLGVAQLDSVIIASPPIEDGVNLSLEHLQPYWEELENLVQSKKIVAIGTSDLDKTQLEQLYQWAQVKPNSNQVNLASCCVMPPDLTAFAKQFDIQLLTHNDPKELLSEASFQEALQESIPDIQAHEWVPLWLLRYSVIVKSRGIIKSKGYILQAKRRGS

[3] = tested on: rat thoracic aortic rings; details: 100 μM MG for 24 h; cited from earlier work
[4] = tested on: human brain microvascular endothelial cell; test: Endothelial barrier permeability by transendothelial electrical resistance; type: cell-based; details: MG alone
Description: Moreover, treatment with 100 μM MG in rat thoracic aortic rings for 24 h decreases acetylcholine-induced vascular relaxation via a reduction in p-eNOS (Ser1177) and p-AMPKα (Thr172). MG can reduce endothelial angiogenesis through RAGE-mediated, ONOO(^−)-dependent and autophagy-induced VEGFR2 degradation. […] This is exacerbated by GSH synthesis inhibition and prevented by NAC. The enhanced MG concentration in diabetic patients can also directly contribute to the platelet dysfunction associated with diabetes. Platelet dysfunction is characterized by hyperaggregability and reduced thrombus stability via potentiating thrombin-induced platelet aggregation and dense granule release, but inhibiting platelet spreading on fibronectin and collagen. Given that endothelial dysfunction and enhanced platelet activation could promote stroke, these studies indicate that MG can contribute to ischemic brain injury.

Akita diabetic mouse = test: Akita model: platelet-neutrophil aggregates and thrombosis onset and cessation; type: in vivo; details: Akita diabetic mice, insulin treatment
Text: FIGS. 28A-28C are three bar graphs showing percent platelet-neutrophil aggregate formation (FIG. 28A), time to onset of thrombosis (FIG. 28B), and time to cessation of thrombosis (FIG. 28C) for Akita non-diabetic mouse, Akita diabetic mouse, Akita diabetic mouse plus insulin, and Akita diabetic mouse plus insulin and NAC; and
Akita model: like STZ model, shown in FIGS. 28A-28C percent platelet-neutrophil aggregate formation is increased, and time to onset and cessation in thrombosis are accelerated in arterioles and venules. Again this reiterates that the effects of diabetes may be “global” rather than confined to one type/cause of diabetes. […] The data evidences that glucose control, which is the current treatment, is not completely effective and that co-treatment with NAC is very effective. […] It appears that insulin and NAC are additive/synergistic.

CCCCS(=N)(=O)CCC(N)C(=O)O [BSO, L-buthionine sulfoximine]
brain cysteine levels [1]: higher free cysteine levels | brain infarction and edema [2]: exacerbated further

CC(=O)C=O [MG, Methylglyoxal]
acetylcholine-induced vascular relaxation [3]: decreases | endothelial barrier permeability (loss of transendothelial electrical resistance) [4]: increase human brain microvascular endothelial cell barrier permeability

insulin
platelet-neutrophil aggregate formation (Akita diabetic mouse): reversal | thrombosis cessation time (time to complete occlusion of the vessel) (Akita diabetic mouse): did not correct | thrombosis onset time in arterioles (Akita diabetic mouse): reversal | thrombosis onset time in venules (Akita diabetic mouse): did not correct
